% of control, % of inhibition and pXC50 data for nine molecules are collected here from ChEMBL document CHEMBL5465560, “Selectivity Literature for EUbOPEN Chemogenomic Library” (2024).

The target of assay [1] is T1, Serine/threonine-protein kinase TAO3 (Homo sapiens) (UniProt Q9H2K8).
T1 sequence (whole entry): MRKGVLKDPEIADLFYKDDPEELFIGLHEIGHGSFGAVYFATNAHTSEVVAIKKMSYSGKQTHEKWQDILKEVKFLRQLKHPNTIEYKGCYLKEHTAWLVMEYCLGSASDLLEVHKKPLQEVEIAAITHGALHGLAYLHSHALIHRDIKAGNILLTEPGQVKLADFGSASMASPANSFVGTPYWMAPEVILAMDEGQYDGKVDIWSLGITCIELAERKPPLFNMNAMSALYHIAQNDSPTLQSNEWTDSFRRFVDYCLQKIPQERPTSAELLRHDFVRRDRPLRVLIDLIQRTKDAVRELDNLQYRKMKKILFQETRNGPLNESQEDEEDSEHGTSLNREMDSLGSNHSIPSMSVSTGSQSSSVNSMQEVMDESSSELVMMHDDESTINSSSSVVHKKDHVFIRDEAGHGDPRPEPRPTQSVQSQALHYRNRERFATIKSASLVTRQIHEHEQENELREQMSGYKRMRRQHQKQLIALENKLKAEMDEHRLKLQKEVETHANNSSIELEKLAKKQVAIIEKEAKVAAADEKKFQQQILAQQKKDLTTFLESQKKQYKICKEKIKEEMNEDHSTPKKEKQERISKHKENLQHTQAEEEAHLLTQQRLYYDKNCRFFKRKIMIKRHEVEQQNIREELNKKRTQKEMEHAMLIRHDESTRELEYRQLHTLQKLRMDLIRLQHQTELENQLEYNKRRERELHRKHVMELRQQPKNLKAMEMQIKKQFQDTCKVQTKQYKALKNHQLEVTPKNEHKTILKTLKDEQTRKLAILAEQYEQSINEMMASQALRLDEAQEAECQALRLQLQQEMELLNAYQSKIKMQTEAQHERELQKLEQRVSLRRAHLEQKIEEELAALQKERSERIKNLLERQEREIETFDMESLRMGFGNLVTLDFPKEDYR
The assay can be described thus: Selectivity interaction (KinomeScan (DiscoverX)) EUB0000595a TAOK3. The following applies: at 10 µM.

Assay [2] deals with Serine/threonine-protein kinase N1 (Homo sapiens, UniProt Q16512). The following applies: at 10 µM.
Chain of Serine/threonine-protein kinase N1 (Q16512 2-942 limits assumed): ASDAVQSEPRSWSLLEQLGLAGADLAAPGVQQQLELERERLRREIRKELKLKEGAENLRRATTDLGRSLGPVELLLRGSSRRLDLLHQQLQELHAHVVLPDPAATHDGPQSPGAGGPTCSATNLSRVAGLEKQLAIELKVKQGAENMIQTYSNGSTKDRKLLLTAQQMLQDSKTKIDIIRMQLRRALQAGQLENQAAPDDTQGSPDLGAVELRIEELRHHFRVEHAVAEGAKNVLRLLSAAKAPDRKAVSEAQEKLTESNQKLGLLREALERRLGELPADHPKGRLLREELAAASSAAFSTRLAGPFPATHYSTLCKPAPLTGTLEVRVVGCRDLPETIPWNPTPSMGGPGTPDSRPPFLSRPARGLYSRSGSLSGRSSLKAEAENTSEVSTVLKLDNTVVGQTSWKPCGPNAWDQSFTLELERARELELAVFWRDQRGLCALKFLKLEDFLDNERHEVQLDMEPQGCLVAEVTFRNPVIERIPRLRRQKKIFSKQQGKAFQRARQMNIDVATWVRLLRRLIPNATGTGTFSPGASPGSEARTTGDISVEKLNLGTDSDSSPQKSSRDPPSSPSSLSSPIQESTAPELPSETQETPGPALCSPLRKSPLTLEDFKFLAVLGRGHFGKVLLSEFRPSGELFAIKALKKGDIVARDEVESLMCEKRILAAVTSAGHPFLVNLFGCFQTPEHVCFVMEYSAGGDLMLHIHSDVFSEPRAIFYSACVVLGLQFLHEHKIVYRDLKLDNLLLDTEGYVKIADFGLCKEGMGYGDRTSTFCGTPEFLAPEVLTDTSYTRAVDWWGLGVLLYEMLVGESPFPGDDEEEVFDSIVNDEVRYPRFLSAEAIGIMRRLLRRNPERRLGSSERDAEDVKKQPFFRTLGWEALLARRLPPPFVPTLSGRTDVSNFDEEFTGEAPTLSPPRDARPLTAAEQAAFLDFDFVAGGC
For assay [3], the target named is Serine/threonine-protein kinase B-raf (Homo sapiens) (UniProt P15056). The following applies: at 10 µM.
Chain of Serine/threonine-protein kinase B-raf (Homo sapiens) (P15056 whole entry): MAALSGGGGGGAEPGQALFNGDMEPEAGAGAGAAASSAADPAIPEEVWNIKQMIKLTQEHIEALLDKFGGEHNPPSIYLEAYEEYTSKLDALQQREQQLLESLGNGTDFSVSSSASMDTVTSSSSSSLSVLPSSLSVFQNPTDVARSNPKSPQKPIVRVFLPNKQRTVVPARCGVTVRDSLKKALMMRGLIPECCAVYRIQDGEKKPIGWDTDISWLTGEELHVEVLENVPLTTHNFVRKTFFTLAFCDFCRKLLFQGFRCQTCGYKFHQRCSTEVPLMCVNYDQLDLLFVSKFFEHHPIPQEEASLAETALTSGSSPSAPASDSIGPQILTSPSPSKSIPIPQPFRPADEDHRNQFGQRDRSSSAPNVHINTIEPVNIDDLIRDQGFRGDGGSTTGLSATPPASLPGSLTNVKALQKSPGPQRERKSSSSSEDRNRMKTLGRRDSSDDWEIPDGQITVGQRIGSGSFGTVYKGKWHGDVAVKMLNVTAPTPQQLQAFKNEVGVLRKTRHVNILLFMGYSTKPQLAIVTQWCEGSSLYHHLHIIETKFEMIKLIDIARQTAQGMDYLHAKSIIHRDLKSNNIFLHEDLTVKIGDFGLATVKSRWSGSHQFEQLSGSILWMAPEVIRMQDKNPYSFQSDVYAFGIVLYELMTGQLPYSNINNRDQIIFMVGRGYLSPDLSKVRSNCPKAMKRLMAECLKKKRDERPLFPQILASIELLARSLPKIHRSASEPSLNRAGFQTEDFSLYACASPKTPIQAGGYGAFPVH
Assay [4] addresses Cell division control protein 42 homolog (Homo sapiens) (UniProt P60953). The assay can be described thus: Selectivity interaction (Kinase panel (Invitrogen)) EUB0000639a CDC42. The following applies: at 200 nM.
The target of assay [5] is Transient receptor potential cation channel subfamily M member 6 (Homo sapiens) (UniProt Q9BX84). In words: Selectivity interaction (KinomeScan (DiscoverX)) EUB0000045b TRPM6.
Chain of Transient receptor potential cation channel subfamily M member 6 (Homo sapiens) (Q9BX84 whole entry): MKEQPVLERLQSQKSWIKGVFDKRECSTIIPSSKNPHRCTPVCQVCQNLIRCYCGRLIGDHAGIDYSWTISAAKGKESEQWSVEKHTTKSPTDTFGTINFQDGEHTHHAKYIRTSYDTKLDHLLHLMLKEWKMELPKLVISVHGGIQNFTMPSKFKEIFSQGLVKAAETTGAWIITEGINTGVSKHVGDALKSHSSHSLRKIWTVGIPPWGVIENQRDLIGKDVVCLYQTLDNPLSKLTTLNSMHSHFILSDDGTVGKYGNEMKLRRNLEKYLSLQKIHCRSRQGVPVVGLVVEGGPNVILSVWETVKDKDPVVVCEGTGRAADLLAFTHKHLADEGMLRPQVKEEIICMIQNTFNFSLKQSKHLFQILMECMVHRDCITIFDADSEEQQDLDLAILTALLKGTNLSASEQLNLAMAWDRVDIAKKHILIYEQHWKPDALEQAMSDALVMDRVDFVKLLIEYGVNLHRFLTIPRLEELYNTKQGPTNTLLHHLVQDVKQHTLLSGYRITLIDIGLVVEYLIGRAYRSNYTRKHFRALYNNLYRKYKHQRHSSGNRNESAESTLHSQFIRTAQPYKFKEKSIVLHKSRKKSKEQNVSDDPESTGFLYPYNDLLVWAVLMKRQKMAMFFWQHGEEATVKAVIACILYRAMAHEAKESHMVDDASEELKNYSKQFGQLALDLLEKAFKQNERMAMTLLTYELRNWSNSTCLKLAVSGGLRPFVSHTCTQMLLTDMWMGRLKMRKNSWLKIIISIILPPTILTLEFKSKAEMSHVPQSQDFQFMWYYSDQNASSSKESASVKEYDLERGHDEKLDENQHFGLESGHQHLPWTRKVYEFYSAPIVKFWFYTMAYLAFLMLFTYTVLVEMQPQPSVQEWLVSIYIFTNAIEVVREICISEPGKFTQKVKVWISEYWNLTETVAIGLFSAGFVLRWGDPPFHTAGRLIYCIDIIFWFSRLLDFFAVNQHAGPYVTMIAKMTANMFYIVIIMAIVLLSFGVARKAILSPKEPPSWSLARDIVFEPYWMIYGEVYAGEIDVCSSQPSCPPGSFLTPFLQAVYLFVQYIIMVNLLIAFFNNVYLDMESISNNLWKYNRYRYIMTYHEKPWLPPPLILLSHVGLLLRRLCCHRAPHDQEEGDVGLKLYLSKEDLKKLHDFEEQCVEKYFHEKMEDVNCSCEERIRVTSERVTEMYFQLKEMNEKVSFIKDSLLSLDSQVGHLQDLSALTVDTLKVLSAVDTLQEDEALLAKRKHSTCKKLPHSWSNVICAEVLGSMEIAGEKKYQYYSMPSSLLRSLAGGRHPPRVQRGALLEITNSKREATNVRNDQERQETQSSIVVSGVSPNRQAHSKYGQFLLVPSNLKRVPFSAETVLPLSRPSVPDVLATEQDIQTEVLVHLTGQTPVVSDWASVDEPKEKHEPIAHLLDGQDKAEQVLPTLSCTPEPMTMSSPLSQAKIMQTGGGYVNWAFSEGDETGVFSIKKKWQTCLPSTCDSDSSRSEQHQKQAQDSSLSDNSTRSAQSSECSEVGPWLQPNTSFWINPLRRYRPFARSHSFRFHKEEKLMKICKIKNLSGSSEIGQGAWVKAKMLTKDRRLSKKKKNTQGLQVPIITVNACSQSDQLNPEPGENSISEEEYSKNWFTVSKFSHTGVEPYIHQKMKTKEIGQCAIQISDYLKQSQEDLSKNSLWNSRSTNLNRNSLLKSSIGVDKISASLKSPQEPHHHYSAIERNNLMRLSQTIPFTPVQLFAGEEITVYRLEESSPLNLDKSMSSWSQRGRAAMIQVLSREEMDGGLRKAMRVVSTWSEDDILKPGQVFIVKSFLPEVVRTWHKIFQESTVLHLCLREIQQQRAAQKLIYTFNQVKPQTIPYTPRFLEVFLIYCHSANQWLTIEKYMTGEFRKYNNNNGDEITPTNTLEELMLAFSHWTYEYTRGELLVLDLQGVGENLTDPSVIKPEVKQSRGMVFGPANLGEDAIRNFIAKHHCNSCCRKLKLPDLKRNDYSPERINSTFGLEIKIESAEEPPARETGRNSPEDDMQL
Assay [6] addresses Cyclin-dependent kinase 9 (Homo sapiens, UniProt P50750). In words: Selectivity interaction (KinomeScan (DiscoverX)) EUB0001049a CDK9. The following applies: at 1 µM.
Assay [7] addresses T2, Mitogen-activated protein kinase kinase kinase 12 (Homo sapiens) (UniProt Q12852).
T2 sequence (whole entry): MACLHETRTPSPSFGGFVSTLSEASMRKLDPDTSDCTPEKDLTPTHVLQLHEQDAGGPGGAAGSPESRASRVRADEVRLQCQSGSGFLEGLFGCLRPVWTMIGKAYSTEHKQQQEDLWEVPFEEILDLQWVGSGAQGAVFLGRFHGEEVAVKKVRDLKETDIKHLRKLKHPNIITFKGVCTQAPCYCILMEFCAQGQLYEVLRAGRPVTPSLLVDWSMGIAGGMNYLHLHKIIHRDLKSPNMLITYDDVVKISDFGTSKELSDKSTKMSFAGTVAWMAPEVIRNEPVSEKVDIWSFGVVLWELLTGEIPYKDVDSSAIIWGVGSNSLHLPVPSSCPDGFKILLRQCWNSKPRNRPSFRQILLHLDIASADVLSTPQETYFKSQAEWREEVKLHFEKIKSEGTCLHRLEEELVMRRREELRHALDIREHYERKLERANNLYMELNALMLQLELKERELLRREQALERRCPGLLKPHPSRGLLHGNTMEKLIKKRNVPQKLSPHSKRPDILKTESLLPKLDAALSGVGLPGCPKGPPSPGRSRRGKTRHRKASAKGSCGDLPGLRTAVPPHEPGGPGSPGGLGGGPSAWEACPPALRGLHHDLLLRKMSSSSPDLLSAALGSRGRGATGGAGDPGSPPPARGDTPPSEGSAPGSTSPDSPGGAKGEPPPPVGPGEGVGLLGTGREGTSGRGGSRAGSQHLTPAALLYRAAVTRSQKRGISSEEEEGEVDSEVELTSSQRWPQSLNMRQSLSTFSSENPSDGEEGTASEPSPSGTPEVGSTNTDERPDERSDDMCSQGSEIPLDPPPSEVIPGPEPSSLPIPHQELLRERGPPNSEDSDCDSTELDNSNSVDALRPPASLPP
In words: Selectivity interaction (KinomeScan (DiscoverX)) EUB0001049a MAP3K12. The following applies: at 1 µM.

Assay [8] addresses T3, 5-hydroxytryptamine receptor 2C (Homo sapiens) (UniProt P28335).
T3 sequence (whole entry): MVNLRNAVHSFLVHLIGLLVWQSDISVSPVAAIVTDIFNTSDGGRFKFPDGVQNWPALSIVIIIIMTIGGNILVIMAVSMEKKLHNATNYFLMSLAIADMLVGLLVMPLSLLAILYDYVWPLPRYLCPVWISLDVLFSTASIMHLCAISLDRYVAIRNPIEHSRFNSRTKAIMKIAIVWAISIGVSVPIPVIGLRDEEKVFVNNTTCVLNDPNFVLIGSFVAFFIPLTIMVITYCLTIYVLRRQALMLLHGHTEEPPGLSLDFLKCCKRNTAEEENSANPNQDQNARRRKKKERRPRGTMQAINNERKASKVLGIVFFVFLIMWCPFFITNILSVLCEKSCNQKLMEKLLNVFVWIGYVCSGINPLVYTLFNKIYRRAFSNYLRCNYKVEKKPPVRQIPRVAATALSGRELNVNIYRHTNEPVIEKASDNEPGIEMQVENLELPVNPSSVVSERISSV
The assay can be described thus: Selectivity interaction (Panel of kinases, GPCRs, ion channels and transporters (enzymatic assay)) EUB0000223bCl HTR2C.

Assay [9] addresses Receptor tyrosine-protein kinase erbB-4 (Homo sapiens, UniProt Q15303). The assay can be described thus: Selectivity interaction (KinomeScan (DiscoverX)) EUB0000655a ERBB4. Conditions: at 10 µM.
In assay [10] the target is Serine/threonine-protein kinase PLK3 (Homo sapiens, UniProt Q9H4B4). The assay can be described thus: Selectivity interaction (Millipore kinase profiler) EUB0000124b PLK3. Conditions: at 10 µM.
Chain of Serine/threonine-protein kinase PLK3 (Q9H4B4 whole entry, looked up): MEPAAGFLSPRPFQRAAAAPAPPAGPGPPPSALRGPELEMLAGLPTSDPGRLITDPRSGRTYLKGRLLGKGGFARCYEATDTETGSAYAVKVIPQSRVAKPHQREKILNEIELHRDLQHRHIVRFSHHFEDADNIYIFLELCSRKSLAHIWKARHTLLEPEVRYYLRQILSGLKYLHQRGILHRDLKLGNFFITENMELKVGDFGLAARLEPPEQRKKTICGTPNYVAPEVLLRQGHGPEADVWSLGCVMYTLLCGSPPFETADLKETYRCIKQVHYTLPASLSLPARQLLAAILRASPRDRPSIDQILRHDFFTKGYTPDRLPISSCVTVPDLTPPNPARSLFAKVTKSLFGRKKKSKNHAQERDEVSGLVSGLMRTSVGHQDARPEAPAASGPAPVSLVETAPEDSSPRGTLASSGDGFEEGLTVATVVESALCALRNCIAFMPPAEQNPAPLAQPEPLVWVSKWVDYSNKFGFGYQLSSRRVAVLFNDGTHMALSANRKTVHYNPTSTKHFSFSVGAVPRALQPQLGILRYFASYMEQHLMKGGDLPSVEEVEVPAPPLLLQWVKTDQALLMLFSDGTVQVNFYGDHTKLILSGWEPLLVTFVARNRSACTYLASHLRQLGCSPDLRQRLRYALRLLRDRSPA

Molecules are shown by their SMILES. A value given as a limit tells only on which side of the number the result lay.

Chain of Cyclin-dependent kinase 9 (P50750 whole entry): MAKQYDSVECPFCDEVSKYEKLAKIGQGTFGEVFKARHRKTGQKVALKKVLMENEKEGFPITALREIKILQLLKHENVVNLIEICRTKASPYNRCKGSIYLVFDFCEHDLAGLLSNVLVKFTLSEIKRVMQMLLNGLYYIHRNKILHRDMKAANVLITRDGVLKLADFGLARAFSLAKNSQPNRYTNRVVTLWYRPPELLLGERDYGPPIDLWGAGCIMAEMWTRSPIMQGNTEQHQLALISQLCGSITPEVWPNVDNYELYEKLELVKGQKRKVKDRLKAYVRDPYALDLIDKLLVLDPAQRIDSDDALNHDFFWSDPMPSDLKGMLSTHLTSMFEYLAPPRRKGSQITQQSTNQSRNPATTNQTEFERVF
Chain of Cell division control protein 42 homolog (Homo sapiens) (P60953 whole entry, looked up): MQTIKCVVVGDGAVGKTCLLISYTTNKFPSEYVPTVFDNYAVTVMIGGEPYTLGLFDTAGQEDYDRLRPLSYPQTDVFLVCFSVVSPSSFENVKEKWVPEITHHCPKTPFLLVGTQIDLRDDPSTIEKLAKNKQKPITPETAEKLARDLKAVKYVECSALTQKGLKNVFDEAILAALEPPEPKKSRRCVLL

The molecule `COCC(=O)NC/C=C/c1ccc2ncnc(Nc3ccc(Oc4ccc(C)nc4)c(C)c3)c2c1` [CP-724714] showed a % of control in assay [1] of 100%.
For the molecule `CCN(CC)CCCCNc1ncc2cc(-c3cc(OC)cc(OC)c3)c(NC(=O)NC(C)(C)C)nc2n1`, the % of control in assay [2] was 100%.
With `Cc1cc([C@@H](C)Nc2ccccc2C(=O)O)c2nc(N3CCOCC3)cc(=O)n2c1` [AZD-6482], in assay [3], the % of control was 100%.
`CC[C@@H]1[C@H](F)C(=O)N[C@@H]1COc1nccc2cc(C(N)=O)c(OC)cc12` [ZIMLOVISERTIB] came in with a % of inhibition in assay [4] of 13.7%.
With `C=CC(=O)Nc1cc(-n2c(=O)ccc3cnc4ccc(-c5ccc(NS(C)(=O)=O)cc5)cc4c32)ccc1C`, the % of control in assay [5] (at 1 µM) and in [5] (at 10 µM) was 100% each time.
With `COc1cc(Nc2nc(C)cc(-c3cnn4nc(OC)ccc34)n2)cc(C(F)(F)F)c1`, the % of control in [6] was 100%; in [7] it was 92%.
In assay [8], `COc1cc(C(=O)N2CC[C@@H](O)[C@@H](N)C2)cc2nc(-c3cc4ccccc4n3CC3CC3)n(C)c12` registered a pXC50 of under 4.4 M.
In the case of `CN(C)CCOc1ccc(-c2nc(-c3ccncc3)c(-c3ccc4c(c3)CC/C4=N\O)[nH]2)cc1`, in [9], the % of control stood at 73%.
For `CC(=O)Nc1cccc(-n2c(=O)n(C3CC3)c(=O)c3c(Nc4ccc(I)cc4F)n(C)c(=O)c(C)c32)c1`, in assay [10], the % of control amounted to 91%.
